Test results as given in article PMC10016038, “Enhanced Endosomal Signaling and Desensitization of GLP-1R vs GIPR in Pancreatic Beta Cells” (Endocrinology, 2023).

Experiments:
[1] = tested on: SNAP-GIPR; experiment: Nb37 bystander NanoBiT, plasma membrane (CAAX), GIPR; assay type: cell-based, human; conditions: 30-minute AUC, n = 4
Source text: The Nb37 assay constructs were kindly provided by Prof. Asuka Inoue, Tohoku University, Japan. Nb37 (gene synthesized by GenScript with codon optimization) was C-terminally fused to SmBiT with a 15 amino acid flexible linker ([…]), and the resulting construct referred to as Nb37-SmBiT. The C-terminal KRAS CAAX motif ([…]) was N-terminally fused with LgBiT (LgBiT-CAAX). The Endofin FYVE domain (amino acid region Gln739-Lys806) was C-terminally fused with LgBiT (Endofin-LgBiT). Gαs (human, short isoform), Gβ1 (human), Gγ2 (human), and RIC8B (human, isoform 2) plasmids were inserted into pcDNA3.1 or pCAGGS expression plasmid vectors. INS-1 832/3 GLP-1R KO or GIPR KO cells were seeded in 6-well plates and co-transfected with 0.1 μg SNAP-GLP-1R or SNAP-GIPR, 0.5 μg Gαs, Gβ1, and Gγ2, 0.1 μg RIC8B, 0.1 μg CAAX-LgBiT or 0.5 μg Endofin-LgBiT with 0.1 μg or 0.5 μg Nb37-SmBiT, respectively, with 0.8 µg pcDNA3.1 added to the former to equalize DNA content.
All NanoBiT and NanoBRET readings were obtained in a Flexstation 3 plate reader. […] Readings were normalized to well baseline and then to average vehicle-induced signal to establish the agonist-induced effect. AUCs from response curves were calculated for each agonist concentration and fitted to four-parameter curves using Prism 9 (GraphPad). […]

[2] = tested on: GIPR-NanoLuc; experiment: Mini-Gs-Venus recruitment NanoBRET, GIPR; assay type: cell-based; conditions: 100 nM, n = 4
Description: Mini-Gs-Venus was a gift from Prof. Nevin Lambert, Augusta University, USA. INS-1 832/3 GLP-1R KO or GIPR KO cells were seeded in 12-well plates and co-transfected with 0.5 µg mini-Gs-Venus and either 0.5 µg GLP-1R- or GIPR-NanoLuc, respectively.
All NanoBiT and NanoBRET readings were obtained in a Flexstation 3 plate reader. Briefly, 24 hours after transfection, cells were detached, resuspended in NanoGlo Live Cell Reagent (Promega) with furimazine (1:20 dilution) and seeded into white 96-well half-area plates. […] Readings were normalized to well baseline and then to average vehicle-induced signal to establish the agonist-induced effect. AUCs from response curves were calculated for each agonist concentration and fitted to four-parameter curves using Prism 9 (GraphPad).
Figure 5. Beta cell GLP-1R vs GIPR G protein subtype and β-arrestin 2 recruitment characteristics. (A) Kinetics of Gαs, Gαq, Gαi, and β-arrestin 2 recruitment to the GLP-1R assessed by NanoBiT complementation assay in INS-1 832/3 GLP-1R KO cells transiently expressing GLP-1R-SmBiT and the corresponding mini-G protein subtype or β-arrestin 2. […] (B) Kinetics of Gαs, Gαq, Gαi, and β-arrestin 2 recruitment to the GIPR assessed by NanoBiT complementation assay in INS-1 832/3 GIPR KO cells transiently expressing GIPR-SmBiT and the corresponding mini-G protein subtype or β-arrestin 2. […]

[3] = tested on: GLP-1R-SmBiT; experiment: Mini-G protein/β-arrestin 2 recruitment NanoBiT, GLP-1R; assay type: cell-based; conditions: 100 nM GLP-1, 30 minutes, n = 5
Source text: Here the SmBiT was cloned in frame at the C-terminus of the GLP-1R and the GIPR by substitution of the Tango sequence on FLAG-tagged GLP-1R-Tango or GIPR-Tango (a gift from Prof. Bryan Roth, University of North Carolina, USA; Addgene plasmids #66291 and #66294), respectively. Mini-Gs, mini-Gq, and mini-Gi plasmids, tagged at the N-terminus with LgBiT, were a gift from Prof. Nevin Lambert, Medical College of Georgia, USA. For β-arrestin 2 recruitment assays, β-arrestin 2 fused at the N-terminus to LgBiT (LgBiT-β-arrestin 2; Promega, plasmid no. CS1603B118) was chosen as it has previously been used successfully with other class B GPCRs. […]
All NanoBiT and NanoBRET readings were obtained in a Flexstation 3 plate reader. […] Readings were normalized to well baseline and then to average vehicle-induced signal to establish the agonist-induced effect. AUCs from response curves were calculated for each agonist concentration and fitted to four-parameter curves using Prism 9 (GraphPad).
Figure 5. […] (A) Kinetics of Gαs, Gαq, Gαi, and β-arrestin 2 recruitment to the GLP-1R assessed by NanoBiT complementation assay in INS-1 832/3 GLP-1R KO cells transiently expressing GLP-1R-SmBiT and the corresponding mini-G protein subtype or β-arrestin 2. […]

Substance | Recruitment of Nb37 to active GIPRs vs GLP-1Rs within the plasma membrane [1] | Gαs recruitment to the GIPR compared to the GLP-1R [2] | Gαi coupling of GLP-1R [3] | Gαs coupling of GLP-1R [3]
GIP(1-42) | no significant differences | significantly reduced Gαs recruitment |  | 
GLP-1(7-36)NH2 |  |  | minimum coupling | preferentially coupled to Gαs
